According to patent US11834453B2, “Substituted pyrimido[5,4-d]pyrimidines as HER2 inhibitors” (Array BioPharma Inc., priority 2020, dated 2023):
Like-named read-outs stand apart in the source and are kept apart here.

How the values were obtained:
[1] = target: ErbB2 insYVMA (HER2-YVMA, SEQ ID NO: 2) (Homo sapiens, UniProt P04626, INS775YVMA/P1170A); experiment: biochemical; details: ErbB2 insYVMA enzyme assay
ErbB2 WT = ErbB2 WT (Homo sapiens (Human), UniProt P04626); experiment: ErbB enzyme assay (CisBio HTRF KinEASE-TK), Assay 2; assay type: biochemical
Chain of ErbB2 WT (P04626 23-1255): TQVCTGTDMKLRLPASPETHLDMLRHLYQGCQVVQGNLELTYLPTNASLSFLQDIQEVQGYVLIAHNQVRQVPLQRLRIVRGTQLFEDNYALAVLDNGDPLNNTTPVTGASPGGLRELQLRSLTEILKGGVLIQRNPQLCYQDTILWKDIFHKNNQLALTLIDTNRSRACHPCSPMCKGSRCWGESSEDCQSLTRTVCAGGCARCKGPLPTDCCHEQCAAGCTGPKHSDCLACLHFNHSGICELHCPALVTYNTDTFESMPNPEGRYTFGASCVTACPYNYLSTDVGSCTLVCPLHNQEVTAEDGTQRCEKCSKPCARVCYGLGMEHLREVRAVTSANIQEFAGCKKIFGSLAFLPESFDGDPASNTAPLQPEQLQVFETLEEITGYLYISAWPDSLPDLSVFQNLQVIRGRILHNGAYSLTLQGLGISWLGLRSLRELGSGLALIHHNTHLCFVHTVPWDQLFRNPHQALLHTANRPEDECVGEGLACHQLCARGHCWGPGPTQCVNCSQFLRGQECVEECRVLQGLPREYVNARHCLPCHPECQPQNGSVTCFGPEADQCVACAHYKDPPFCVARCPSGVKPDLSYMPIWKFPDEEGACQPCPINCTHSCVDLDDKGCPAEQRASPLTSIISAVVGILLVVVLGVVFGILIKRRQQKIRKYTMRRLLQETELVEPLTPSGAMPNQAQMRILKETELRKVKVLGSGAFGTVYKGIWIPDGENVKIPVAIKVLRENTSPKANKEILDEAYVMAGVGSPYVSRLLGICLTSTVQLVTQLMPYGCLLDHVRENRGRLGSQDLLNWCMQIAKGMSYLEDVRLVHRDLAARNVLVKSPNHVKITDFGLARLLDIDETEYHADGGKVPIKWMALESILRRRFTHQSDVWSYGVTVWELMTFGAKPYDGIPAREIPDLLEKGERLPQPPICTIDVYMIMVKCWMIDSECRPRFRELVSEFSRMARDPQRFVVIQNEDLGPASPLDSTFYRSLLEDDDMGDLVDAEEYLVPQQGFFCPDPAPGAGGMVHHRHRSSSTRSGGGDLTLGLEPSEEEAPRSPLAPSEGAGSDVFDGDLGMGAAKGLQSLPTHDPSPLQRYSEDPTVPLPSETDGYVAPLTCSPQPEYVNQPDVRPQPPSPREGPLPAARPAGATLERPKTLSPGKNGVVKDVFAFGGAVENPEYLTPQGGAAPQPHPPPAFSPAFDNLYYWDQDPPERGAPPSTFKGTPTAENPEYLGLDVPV
Description: Compound potencies were determined using CisBio's HTRF Kinease-TK assay technology. The kinases were incubated with 250 nM TK-substrate biotin (CisBio, part of cat #62TK0PEC) at 1 mM ATP along with test compounds in a buffer consisting of 25 mM HEPES, pH 7.4, 10 mM MgCl2, 0.01% Triton X-100, and 2% DMSO in a volume of 8 μL. […] After 30-minute incubation at 22° C., the reaction was quenched by adding 8 μL of quench solution containing 62.5 nM Sa-XL665 and 0.25× TK-Ab-Cryptate in HTRF detection buffer (all from CisBio, part of cat #62TK0PEC). After a 1-hour incubation at 22° C., the extent of reaction was determined using a PerkinElmer EnVision multimode plate reader via HTRF dual wavelength detection, and the percent of control (POC) was calculated using a ratiometric emission factor. One hundred POC was determined using DMSO only samples (no compound present), and 0 POC was determined using pre-quenched control reactions.
(§1) Enzyme lots and concentration used are in Table 2.

EGFR = EGFR (Homo sapiens (Human), UniProt P00533); experiment: ErbB enzyme assay (CisBio HTRF KinEASE-TK), Assay 3; assay type: biochemical
Chain of EGFR (P00533 25-1210): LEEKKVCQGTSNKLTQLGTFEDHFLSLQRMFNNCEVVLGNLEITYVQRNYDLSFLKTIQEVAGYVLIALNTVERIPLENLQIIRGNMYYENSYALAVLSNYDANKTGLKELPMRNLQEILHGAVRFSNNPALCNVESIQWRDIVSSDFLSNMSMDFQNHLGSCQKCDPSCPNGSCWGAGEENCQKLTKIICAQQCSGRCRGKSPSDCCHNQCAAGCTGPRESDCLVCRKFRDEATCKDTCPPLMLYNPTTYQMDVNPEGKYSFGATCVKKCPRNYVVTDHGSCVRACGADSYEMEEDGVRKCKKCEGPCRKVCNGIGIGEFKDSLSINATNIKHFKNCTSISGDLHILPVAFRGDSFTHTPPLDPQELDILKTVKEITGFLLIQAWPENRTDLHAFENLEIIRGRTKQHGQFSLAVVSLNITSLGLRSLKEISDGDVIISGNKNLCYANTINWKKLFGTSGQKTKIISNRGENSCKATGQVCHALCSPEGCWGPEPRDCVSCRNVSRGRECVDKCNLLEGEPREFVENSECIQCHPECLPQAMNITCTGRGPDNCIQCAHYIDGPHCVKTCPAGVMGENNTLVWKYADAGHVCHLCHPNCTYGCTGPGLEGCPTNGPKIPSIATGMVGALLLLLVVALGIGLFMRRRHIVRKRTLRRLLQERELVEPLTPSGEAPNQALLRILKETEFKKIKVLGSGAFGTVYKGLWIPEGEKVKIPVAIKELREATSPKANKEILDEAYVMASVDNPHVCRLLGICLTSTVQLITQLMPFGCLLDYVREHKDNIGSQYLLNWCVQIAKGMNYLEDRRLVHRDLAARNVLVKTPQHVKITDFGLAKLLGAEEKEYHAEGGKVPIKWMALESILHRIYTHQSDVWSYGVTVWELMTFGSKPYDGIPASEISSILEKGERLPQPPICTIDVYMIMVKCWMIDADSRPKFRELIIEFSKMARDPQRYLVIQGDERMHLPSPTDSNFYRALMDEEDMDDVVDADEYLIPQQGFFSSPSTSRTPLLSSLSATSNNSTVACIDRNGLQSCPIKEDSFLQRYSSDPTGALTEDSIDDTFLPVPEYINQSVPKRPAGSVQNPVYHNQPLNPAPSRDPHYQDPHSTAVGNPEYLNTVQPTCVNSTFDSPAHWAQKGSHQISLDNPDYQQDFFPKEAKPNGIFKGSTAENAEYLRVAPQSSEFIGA
Description: Compound potencies were determined using CisBio's HTRF Kinease-TK assay technology. The kinases were incubated with 250 nM TK-substrate biotin (CisBio, part of cat #62TK0PEC) at 1 mM ATP along with test compounds in a buffer consisting of 25 mM HEPES, pH 7.4, 10 mM MgCl2, 0.01% Triton X-100, and 2% DMSO in a volume of 8 μL. Compounds were prepared as a three-fold serial dilution in DMSO and added to the assay to give the appropriate final concentration. After 30-minute incubation at 22° C., the reaction was quenched by adding 8 μL of quench solution containing 62.5 nM Sa-XL665 and 0.25× TK-Ab-Cryptate in HTRF detection buffer (all from CisBio, part of cat #62TK0PEC). After a 1-hour incubation at 22° C., the extent of reaction was determined using a PerkinElmer EnVision multimode plate reader via HTRF dual wavelength detection, and the percent of control (POC) was calculated using a ratiometric emission factor. One hundred POC was determined using DMSO only samples (no compound present), and 0 POC was determined using pre-quenched control reactions. A 4-parameter logistic curve was fit to the POC values as a function of the concentration of compound, and the IC50 value was the point where the best-fit curve crossed 50 POC.
as §1

[2] = target: ErbB2 with Exon 20 YVMA insertion (HER2-YVMA) (Homo sapiens (Human), UniProt P04626, INS775YVMA); experiment: Cellular phosphorylation assay, constitutive ErbB2 phosphorylation (Y1196) in engineered NIH 3T3 cells, Assay 4; assay type: cell-based
Chain of ErbB2 with Exon 20 YVMA insertion (HER2-YVMA) (P04626 other isoform, or with tags, fused parts or gaps ins YVMA behind 775): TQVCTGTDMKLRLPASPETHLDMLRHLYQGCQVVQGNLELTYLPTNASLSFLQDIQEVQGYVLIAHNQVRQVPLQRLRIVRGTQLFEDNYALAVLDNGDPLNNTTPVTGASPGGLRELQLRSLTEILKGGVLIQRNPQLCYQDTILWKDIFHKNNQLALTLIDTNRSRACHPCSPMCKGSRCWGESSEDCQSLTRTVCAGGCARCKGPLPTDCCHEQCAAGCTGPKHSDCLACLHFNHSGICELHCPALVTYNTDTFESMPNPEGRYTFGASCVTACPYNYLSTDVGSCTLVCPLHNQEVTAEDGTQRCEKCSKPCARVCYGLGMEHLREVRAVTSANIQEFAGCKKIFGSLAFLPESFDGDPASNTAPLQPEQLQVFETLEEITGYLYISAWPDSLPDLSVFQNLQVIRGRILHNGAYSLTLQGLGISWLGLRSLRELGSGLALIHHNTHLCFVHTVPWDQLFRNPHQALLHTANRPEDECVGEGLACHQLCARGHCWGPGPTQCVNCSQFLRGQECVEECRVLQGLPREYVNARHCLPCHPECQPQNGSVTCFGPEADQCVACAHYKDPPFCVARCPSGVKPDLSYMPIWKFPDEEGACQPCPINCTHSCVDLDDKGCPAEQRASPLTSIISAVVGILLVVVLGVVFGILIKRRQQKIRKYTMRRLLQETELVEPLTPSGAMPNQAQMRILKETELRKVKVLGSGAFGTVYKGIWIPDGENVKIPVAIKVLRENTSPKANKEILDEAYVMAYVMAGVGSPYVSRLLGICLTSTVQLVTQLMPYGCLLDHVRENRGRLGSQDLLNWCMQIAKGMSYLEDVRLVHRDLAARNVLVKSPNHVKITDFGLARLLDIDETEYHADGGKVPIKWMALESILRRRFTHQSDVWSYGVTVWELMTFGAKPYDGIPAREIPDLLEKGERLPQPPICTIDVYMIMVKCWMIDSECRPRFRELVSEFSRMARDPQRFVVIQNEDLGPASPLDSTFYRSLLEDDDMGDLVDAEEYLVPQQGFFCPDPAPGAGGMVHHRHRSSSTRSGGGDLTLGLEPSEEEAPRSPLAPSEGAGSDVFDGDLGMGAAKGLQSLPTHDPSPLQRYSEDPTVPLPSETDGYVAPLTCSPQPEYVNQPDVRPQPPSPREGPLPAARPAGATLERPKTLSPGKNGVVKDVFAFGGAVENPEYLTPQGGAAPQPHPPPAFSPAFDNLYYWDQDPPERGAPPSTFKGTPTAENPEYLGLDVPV
Description: Serially diluted compounds were added to the plates for 1 hour at 37° C./5% CO2. EGFR WT cells were stimulated with 100 ng/ml rEGF for an additional 10 minutes at 37° C./5% CO2. After compound incubation, medium was removed from the cells, which were then fixed in 3.7% formaldehyde in PBS at room temperature for 20 minutes. Following a wash with PBS, cells were permeabilized with 100% methanol at room temperature for 10 minutes. Cells were then washed with PBS/0.05% Tween-20 and blocked with Odyssey blocking buffer (LI-COR Biosciences) for at least 1 hour at room temperature. Antibodies to phosphorylated ErbB2 (Y1196, Cell Signaling #6942) or phosphorylated EGFR (Y1068, Cell Signaling #3777) and GAPDH (Millipore #MAB374) were added to the cells in blocking buffer containing 0.05% azide and incubated overnight at 4° C. After washing with PBS/0.05° i° Tween-20, the cells were incubated with fluorescently labeled secondary anti-rabbit antibody (LiCOR, IRDye 800CW #926-32211) and anti-mouse antibody (Molecular Probes, Alexa Fluor 680 #A21058) for 1 hour at room temperature in the dark. Cells were then washed and analyzed for fluorescence at both wavelengths using the Odyssey Infrared Imaging System (LI-COR Biosciences). Phosphorylated ErbB2 and EGFR signal was normalized to GAPDH signal to generate curves and calculate IC50 values.

Chain of ErbB2 insYVMA (HER2-YVMA, SEQ ID NO: 2) (P04626 with tags, fused parts or gaps INS775YVMA/P1170A limits assumed): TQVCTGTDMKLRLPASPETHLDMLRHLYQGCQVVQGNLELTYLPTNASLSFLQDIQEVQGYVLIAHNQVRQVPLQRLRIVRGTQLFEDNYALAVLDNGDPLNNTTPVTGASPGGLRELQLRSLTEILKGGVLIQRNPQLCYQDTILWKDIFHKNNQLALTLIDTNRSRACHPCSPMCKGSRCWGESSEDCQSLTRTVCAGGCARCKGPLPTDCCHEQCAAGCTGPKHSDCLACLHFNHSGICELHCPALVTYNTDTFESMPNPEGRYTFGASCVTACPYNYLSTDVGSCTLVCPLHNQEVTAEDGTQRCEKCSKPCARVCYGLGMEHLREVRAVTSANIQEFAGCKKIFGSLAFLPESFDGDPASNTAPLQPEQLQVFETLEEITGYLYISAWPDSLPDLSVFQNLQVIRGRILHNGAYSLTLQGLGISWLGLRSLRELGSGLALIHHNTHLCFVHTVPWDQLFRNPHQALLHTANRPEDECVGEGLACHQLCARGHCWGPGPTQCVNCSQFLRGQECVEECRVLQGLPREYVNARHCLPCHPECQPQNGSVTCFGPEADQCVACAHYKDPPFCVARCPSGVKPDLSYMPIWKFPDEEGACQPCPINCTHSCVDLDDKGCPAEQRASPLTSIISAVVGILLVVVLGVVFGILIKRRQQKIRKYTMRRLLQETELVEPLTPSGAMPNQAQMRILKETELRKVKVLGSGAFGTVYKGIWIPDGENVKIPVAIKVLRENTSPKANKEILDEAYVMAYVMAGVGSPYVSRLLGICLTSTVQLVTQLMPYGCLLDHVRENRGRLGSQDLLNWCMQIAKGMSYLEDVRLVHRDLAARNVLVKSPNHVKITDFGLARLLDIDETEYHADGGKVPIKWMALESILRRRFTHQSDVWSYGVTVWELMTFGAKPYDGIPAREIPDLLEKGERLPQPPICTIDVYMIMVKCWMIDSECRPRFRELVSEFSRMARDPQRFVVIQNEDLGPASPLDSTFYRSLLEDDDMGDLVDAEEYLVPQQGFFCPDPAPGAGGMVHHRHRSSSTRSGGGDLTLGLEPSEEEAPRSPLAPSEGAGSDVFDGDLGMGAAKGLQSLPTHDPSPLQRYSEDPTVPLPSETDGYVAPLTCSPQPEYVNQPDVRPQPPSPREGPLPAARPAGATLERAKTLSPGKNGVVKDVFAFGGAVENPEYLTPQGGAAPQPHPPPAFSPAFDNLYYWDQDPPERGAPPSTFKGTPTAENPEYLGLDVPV

Structure (SMILES)	IC50 ([1]; read-out: Assay 1 IC50) [nM]	IC50 (ErbB2 WT) [nM]	IC50 (EGFR) [µM]	IC50 [2] [nM]	IC50 ([1]; Assay 1 IC50 (nM)) [nM]
Cc1cc(Nc2ncnc3cnc(N4CC(OC(F)F)C4)nc23)ccc1Oc1ccc2c(c1)ncn2C [Example 244]	41.9	107	≥ 10	92.2	
Cc1cc(Nc2ncnc3cnc(N4CCCCS4(=O)=O)nc23)ccc1Oc1ccc2c(c1)ncn2C [Example 437]	40.8	146	≥ 10	95.8	
Cc1cc(Nc2ncnc3cnc(N4CCCCC4)nc23)ccc1Oc1ccc2c(c1)ncn2C [Example 242]	111	130	≥ 10	76.3	
Cc1cc(Nc2ncnc3cnc(N4CC[C@H]4C(F)F)nc23)ccc1Oc1ccc2c(c1)ncn2C [Example 388]	62.1	89.4	≥ 10	52.2	
COCCOc1ncc2ncnc(Nc3ccc(Oc4ccc5c(c4)ncn5C)c(C)c3)c2n1 [Example 76, 6-(2-methoxyethoxy)-N-(3-methyl-4-((1-methyl-1H-benzo[d]imidazol-5-yl)oxy)phenyl)pyrimido[5,4-d]pyrimidin-4-amine 2,2,2-trifluoroacetate]		2340	≥ 10	1300	337
CCCOc1ncc2ncnc(Nc3ccc(Oc4ccc5c(c4)ncn5C)c(C)c3)c2n1 [Example 221]	122	334	≥ 10	548	
Cn1cnc2cc(Oc3ccc(Nc4ncnc5cnc(N6CCOCC6)nc45)cc3Cl)ccc21 [Example 81, N-(3-chloro-4-((1-methyl-1H-benzo[d]imidazol-5-yl)oxy)phenyl)-6-morpholinopyrimido[5,4-d]pyrimidin-4-amine 2,2,2-trifluoroacetate]		847	≥ 10	77.1	153
CC(=O)N1CC2CC(C1)N2c1ncc2ncnc(Nc3ccc(Oc4ccc5c(c4)ncn5C)c(C)c3)c2n1 [Example 23, 1-(6-(8-((3-methyl-4-((1-methyl-1H-benzo[d]imidazol-5-yl)oxy)phenyl)amino)pyrimido[5,4-d]pyrimidin-2-yl)-3,6-diazabicyclo[3.1.1]heptan-3-yl)ethan-1-one]	313	1340	≥ 10	717	
Cc1cnc(-c2ncc3ncnc(Nc4ccc(Oc5ccc6c(c5)ncn6C)c(C)c4)c3n2)s1 [Example 41, N-(3-methyl-4-((1-methyl-1H-benzo[d]imidazol-5-yl)oxy)phenyl)-6-(5-methylthiazol-2-yl)pyrimido[5,4-d]pyrimidin-4-amine]	196	234	≥ 10	53	
Cc1cc(Nc2ncnc3cnc(N4CCCC(OC(F)F)C4)nc23)ccc1Oc1ccc2c(c1)ncn2C (racemic) [Example 40, 6-(3-(difluoromethoxy)piperidin-1-yl)-N-(3-methyl-4-((1-methyl-1H-benzo[d]imidazol-5-yl)oxy)phenyl)pyrimido[5,4-d]pyrimidin-4-amine]	71.5	145	≥ 10	91.5	
COC1CC2(C1)CN(c1ncc3ncnc(Nc4ccc(Oc5ccc6c(c5)ncn6C)c(C)c4)c3n1)C2 [Example 237]	32	70.2	≥ 10	71.6	
Cc1cc(Nc2ncnc3cnc(N4CC(COC(F)F)C4)nc23)ccc1Oc1ccc2c(c1)ncn2C [Example 245]	50.4	142	≥ 10	109	
CC(=O)N1C2CC1CN(c1ncc3ncnc(Nc4ccc(Oc5ccc6c(c5)ncn6C)c(C)c4)c3n1)C2 [Example 89, 1-(3-(8-((3-methyl-4-((1-methyl-1H-benzo[d]imidazol-5-yl)oxy)phenyl)amino)pyrimido[5,4-d]pyrimidin-2-yl)-3,6-diazabicyclo[3.1.1]heptan-6-yl)ethan-1-one]	68.1	285	≥ 10	187	
Cc1cc(Nc2ncnc3cnc(N4CC[C@H]4C(C)(C)O)nc23)ccc1Oc1ccc2c(c1)ncn2C [Example 407]	31.5	117	≥ 10	84.1	
Cc1cc(Nc2ncnc3cnc(N4CCC4C(F)(F)F)nc23)ccc1Oc1ccc2c(c1)ncn2C (stereo not drawn) [Example 238]	99.3	227	≥ 10	163	
Cc1cc(Nc2ncnc3cnc(O[C@@H]4CNC[C@@H]4F)nc23)ccc1Oc1ccc2c(c1)ncn2C [Example 283]	39.5	301	≥ 10	261	
Cc1cc(Nc2ncnc3cnc(N4CCC5(COC5)C4)nc23)ccc1Oc1ccc2c(c1)ncn2C [Example 422]	58.4	93.2	≥ 10	96.7	
Cc1cc(Nc2ncnc3cnc(N4CCC[C@H]4C(F)F)nc23)ccc1Oc1ccc2c(c1)ncn2C [Example 55, (S)-6-(2-(difluoromethyl)pyrrolidin-1-yl)-N-(3-methyl-4-((1-methyl-1H-benzo[d]imidazol-5-yl)oxy)phenyl)pyrimido[5,4-d]pyrimidin-4-amine]	110	260	≥ 10	98.4	
COC1CN(c2ncc3ncnc(Nc4ccc(Oc5ccc6c(c5)ncn6C)c(C)c4)c3n2)C1 [Example 43, 6-(3-methoxyazetidin-1-yl)-N-(3-methyl-4-((1-methyl-1H-benzo[d]imidazol-5-yl)oxy)phenyl)pyrimido[5,4-d]pyrimidin-4-amine]	28.8	59.8	≥ 10	92.1	
Cc1cc(Nc2ncnc3cnc(OCC(C)(C)O)nc23)ccc1Oc1ccc2c(c1)ncn2C [Example 476]	39.5	232	≥ 10	155	
Cc1cc(Nc2ncnc3cnc(N4CCOC[C@@H]4C)nc23)ccc1Oc1ccc2c(c1)ncn2C [Example 258]	88.3	177	≥ 10	51.4	
CO[C@@H]1CCCN(c2ncc3ncnc(Nc4ccc(Oc5ccc6c(c5)ncn6C)c(C)c4)c3n2)C1 [Example 227]	47.4	66.9	≥ 10	53.8	
Cc1cc(Nc2ncnc3cnc(N[C@H](C)COC(F)(F)F)nc23)ccc1Oc1ccc2c(c1)ncn2C [Example 64, (R)—N8-(3-methyl-4-((1-methyl-1H-benzo[d]imidazol-5-yl)oxy)phenyl)-N2-(1-(trifluoromethoxy)propan-2-yl)pyrimido[5,4-d]pyrimidine-2,8-diamine]	157	1300	≥ 10	324	
Cc1cc(Nc2ncnc3cnc(N4CC5CC(C4)N5C)nc23)ccc1Oc1ccc2c(c1)ncn2C [Example 33, N-(3-methyl-4-((1-methyl-1H-benzo[d]imidazol-5-yl)oxy)phenyl)-6-(6-methyl-3,6-diazabicyclo[3.1.1]heptan-3-yl)pyrimido[5,4-d]pyrimidin-4-amine]	100	371	≥ 10	583	
